The record followed here is PubChem BioAssay (NCI).

Some test systems named below: NCI-H226 lung; NCI-H23 lung; K-562 leukemia; UACC-257 melanoma; SNB-75 CNS; HOP-92 NSCLC; HCC-2998 colon; PC-3 prostate; M14 melanoma; NCI/ADR-RES ovarian; NCI-H522 lung; BT-549 breast.
Common to all, as to assay: NCI anticancer screen, dose series, 48 h

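Briefly, cells in 96-well plates were exposed to five compound concentrations for 48 h, and endpoints were estimated by linear interpolation. The concentration for full growth arrest is given as TGI.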

Turning to `CC(C)(C)c1cc2c(O)c(c1)Cc1cc(C(C#N)(Cc3ccc4ccccc4c3)Cc3ccc4ccccc4c3)cc(c1O)Cc1cc(C(C)(C)C)cc(c1O)Cc1cc(C(C#N)(Cc3ccc4ccccc4c3)Cc3ccc4ccccc4c3)cc(c1O)C2`, the TGI in the assay on NCI-H226 lung, in the assay with NCI-H23 lung, with K-562 leukemia, in the assay on UACC-257 melanoma, with SNB-75 CNS and with HOP-92 NSCLC was above 100 µM each time. Moreover, the TGI in the assay with HCC-2998 colon, with PC-3 prostate, in the assay on M14 melanoma, in the assay with NCI/ADR-RES ovarian, with NCI-H522 lung and with BT-549 breast was above 100 µM throughout.

As to `CC(C)OP(=O)(OC(C)C)/C(C#N)=C/c1ccco1`, the TGI in the assay on NCI-H226 lung, in the assay with NCI-H23 lung, in the assay with K-562 leukemia, with UACC-257 melanoma, in the assay on SNB-75 CNS and in the assay with HOP-92 NSCLC was above 100 µM in each case. Moreover, the TGI with HCC-2998 colon, in the assay with PC-3 prostate, in the assay with M14 melanoma, in the assay on NCI/ADR-RES ovarian, in the assay with NCI-H522 lung and with BT-549 breast was above 100 µM each time.

As for `COc1cc(C(=O)O[C@@H]2[C@@H](OC(=O)c3cc(OC)c(OC)c(OC)c3)[C@@H](OC)O[C@@H]3CO[C@@H](c4ccccc4)O[C@@H]23)cc(OC)c1OC`, the TGI with NCI-H226 lung, in the assay with NCI-H23 lung, with K-562 leukemia, with UACC-257 melanoma, in the assay with SNB-75 CNS and in the assay with HOP-92 NSCLC was above 100 µM in each case. For the same compound, the TGI with HCC-2998 colon, in the assay with PC-3 prostate, with M14 melanoma, with NCI/ADR-RES ovarian, in the assay with NCI-H522 lung and in the assay with BT-549 breast was above 100 µM in each case.

`C/C(=N\Nc1nc2ccccc2n1C)c1cnccn1`: the TGI in the assay on NCI-H226 lung was above 100 µM; in the assay with NCI-H23 lung it was above 100 µM; in the assay on K-562 leukemia it was above 100 µM; in the assay with UACC-257 melanoma, above 25 µM; in the assay with SNB-75 CNS, above 100 µM; in the assay with HOP-92 NSCLC it was 6.83 µM. In addition, the TGI in the assay on HCC-2998 colon was above 100 µM; with PC-3 prostate, above 100 µM; with M14 melanoma, 6.53 µM; in the assay with NCI/ADR-RES ovarian it was 3.14 µM; in the assay on NCI-H522 lung it was above 35.8 µM; in the assay with BT-549 breast, above 100 µM.

Take `CC(C)(C)OC(=O)N(O)CCCn1cnc2c(N)ncnc21`: the TGI in the assay on NCI-H226 lung, in the assay with NCI-H23 lung, with K-562 leukemia, with UACC-257 melanoma, in the assay on SNB-75 CNS and in the assay with HOP-92 NSCLC was above 100 µM in each case. The TGI in the assay with HCC-2998 colon, in the assay with PC-3 prostate, in the assay with M14 melanoma, in the assay with NCI/ADR-RES ovarian, in the assay with NCI-H522 lung and in the assay on BT-549 breast was above 100 µM throughout.

As to `O=C1O[C@H]2[C@H](O)[C@@H](OC(=O)c3cc(O)c(O)c4c3[C@@H]3C1=CC(=O)C(O)(O)C3(O)O4)[C@H](OC(=O)c1cc(O)c(O)c(O)c1)O[C@@H]2CO` (some centres undefined), the TGI in the assay on NCI-H226 lung, in the assay on NCI-H23 lung, in the assay on K-562 leukemia, in the assay on UACC-257 melanoma, in the assay on SNB-75 CNS and with HOP-92 NSCLC was above 100 µM in each case. Also, the TGI with HCC-2998 colon, with PC-3 prostate, in the assay on M14 melanoma, in the assay on NCI/ADR-RES ovarian, in the assay on NCI-H522 lung and in the assay with BT-549 breast was above 100 µM in each case.

As to `CC(=O)Oc1cc2c(c3ncccc13)OC(C)(C)C2`, the TGI in the assay on NCI-H226 lung was 33.1 µM; in the assay with NCI-H23 lung, above 100 µM; with K-562 leukemia, 23.4 µM; in the assay on UACC-257 melanoma it was 29.5 µM; with SNB-75 CNS, 17.2 µM; in the assay with HOP-92 NSCLC it was 27.1 µM. The TGI is above 100 µM in the assay with HCC-2998 colon; above 100 µM with PC-3 prostate; 27.5 µM in the assay with M14 melanoma; 23.9 µM with NCI/ADR-RES ovarian; 8.26 µM with NCI-H522 lung; above 100 µM with BT-549 breast.
